Patent publication US6806230B1, “Pyrimidine derivatives and herbicides containing them” (Kumiai Chemical Industry Co., Ltd., priority 1999, dated 2004)

Columns and labels:
Type in all cases: in vivo
[1] = system: barnyard grass (Ec); experiment: Test Example 2: herbicidal effects by upland soil treatment; design: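 0-5 growth inhibition grade; 5 = over 90%; 4 = 70-90%; 3 = 50-70%; 2 = 30-50%; 1 = 10-30%; 0 = under 10%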; conditions: dose 100 g active ingredient per 10 ares, examined on the 21st day after treatment, standards of Table 44
How it was run: (§1)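 Pre-emergence test: barnyard grass and green foxtail sown in upland soil, then soil surface sprayed with wettable-powder formulation at 100 g active ingredient per 10 ares (100 l per 10 ares). Grown in greenhouse; herbicidal effect scored on a rating scale 21 days after treatment.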

[2] = system: green foxtail (Se); experiment: as above; conditions: dose 100 g active ingredient per 10 ares, examined on the 21st day after treatment, standards of Table 44;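 note: 0-5 growth inhibition grade; 5 = over 90%; 4 = 70-90%; 3 = 50-70%; 2 = 30-50%; 1 = 10-30%; 0 = under 10%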
How it was run: as §1

[3] = system: monochoria (Mo); experiment: Test Example 1: herbicidal effects by flooded paddy field treatment; design: herbicidal effects, Mo (monochoria):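 0-5 growth inhibition grade; 5 = over 90%; 4 = 70-90%; 3 = 50-70%; 2 = 30-50%; 1 = 10-30%; 0 = under 10%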; conditions: for herbicidal effects, Mo (monochoria): dose 100 g active ingredient per 10 ares, examined on the 21st day after treatment, standards of Table 44; for Herbicidal effect index, Mo: dose 100 gai/10a, examined on 21st day after treatment, index 0-5 per Table 44;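 for Herbicidal effect index, Mo: 0-5 growth inhibition grade; 5 = over 90%; 4 = 70-90%; 3 = 50-70%; 2 = 30-50%; 1 = 10-30%; 0 = under 10%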
How it was run: (§2)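 Puddled paddy soil in pots, seeds sown, 3 cm flood. Day after sowing: wettable powder diluted in water, applied dropwise to water surface, 100 g a.i./10 ares. Greenhouse; visual herbicidal rating at day 21 post-treatment.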

[4] = system: barnyard grass (Eo); experiment: as above; design: herbicidal effects, Eo (barnyard grass):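 0-5 growth inhibition grade; 5 = over 90%; 4 = 70-90%; 3 = 50-70%; 2 = 30-50%; 1 = 10-30%; 0 = under 10%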; conditions: for herbicidal effects, Eo (barnyard grass): dose 100 g active ingredient per 10 ares, examined on the 21st day after treatment, standards of Table 44; for Herbicidal effect index, Eo: dose 100 gai/10a, examined on 21st day after treatment, index 0-5 per Table 44
How it was run: as §2

[5] = system: barnyard grass (Ec); experiment: Test Example 3: herbicidal effects by foliage treatment in upland field; design: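 0-5 growth inhibition grade; 5 = over 90%; 4 = 70-90%; 3 = 50-70%; 2 = 30-50%; 1 = 10-30%; 0 = under 10%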; conditions: dose 100 g active ingredient per 10 ares, examined on the 14th day after treatment
How it was run: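 Barnyard grass and green foxtail were grown in upland soil for 2 weeks in a greenhouse. A water-diluted wettable powder was sprayed over the foliage at 100 l per 10 ares, giving 100 g active ingredient per 10 ares. Herbicidal effect was scored on day 14 after treatment.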
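Throughout, for Herbicidal effect index, Eo: 0-5 growth inhibition grade; 5 = over 90%; 4 = 70-90%; 3 = 50-70%; 2 = 30-50%; 1 = 10-30%; 0 = under 10%.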

SMILES | herbicidal effects, Ec (barnyard grass) [1] | herbicidal effects, Se (green foxtail) [2] | herbicidal effects, Mo (monochoria) [3] | herbicidal effects, Eo (barnyard grass) [4] | Ec (herbicidal effects, index) [5] | Herbicidal effect index, Mo [3] | Herbicidal effect index, Eo [4]
COc1ccc(C(C)C(=O)N(C)C(c2cncnc2C(F)(F)F)C(C)C)cc1 (mixture of isomers) [1-192] | 5 | 5 | 5 | 5 | 4 | – | –
CC(C(=O)N(C)C(c1cncnc1C(F)(F)F)C(C)C)c1ccccc1 (mixture of isomers) [1-195] | 5 | 5 | 5 | 5 | 5 | – | –
CC(C(=O)N(C)C(c1cncnc1C(F)(F)F)C(C)C)c1ccc(F)cc1 (mixture of isomers) [1-198] | 5 | 5 | 5 | 5 | 4 | – | –
CCC(C)C(c1cncnc1C(F)(F)F)N(C)C(=O)Cc1ccccc1 (mixture of isomers) [Compound 1-57] | 5 | 5 | – | – | 5 | 5 | 5
CN(C(=O)Cc1ccccc1)C(c1ccccc1)c1cncnc1C(F)(F)F (racemic) [1-186] | 5 | 5 | 5 | 5 | 5 | – | –
C#CCN(C(=O)Cc1ccccc1)C(c1cncnc1C(F)(F)F)C(C)C (racemic) [1-193] | 5 | 5 | 5 | 5 | 5 | – | –
C#CCN(C(=O)Cc1ccc(Cl)cc1)C(c1cncnc1C(F)(F)F)C(C)C (racemic) [1-194] | 5 | 5 | 5 | 5 | 5 | – | –
CN(C(=O)Cc1ccccc1)C(c1cncnc1C(F)(F)F)C(C)(C)C (racemic) [1-196] | 5 | 5 | 5 | 5 | 5 | – | –
CC(C)c1ncncc1C(c1ccccc1)N(C)C(=O)Cc1ccc(F)cc1 (racemic) [1-214] | 5 | 5 | 5 | 5 | 4 | – | –
COc1ccc(CC(=O)N(C)C(c2cncnc2C(F)(F)F)C(C)C)cc1 (racemic) [Compound 1-9] | 5 | 5 | – | – | 5 | 5 | 5
CC(C)C(c1cncnc1C(F)(F)F)N(C)C(=O)Sc1ccccc1 (racemic) [Compound 1-10] | 4 | 4 | – | – | 4 | 5 | 5
CC(C)C(c1cncnc1C(F)(F)F)N(C)C(=O)Cc1ccc(F)cc1 (racemic) [Compound 1-12] | 5 | 5 | – | – | 5 | 5 | 5
CC(C)C(c1cncnc1C(F)(F)F)N(C)C(=O)Cc1ccc(C(F)(F)F)cc1 (racemic) [Compound 1-24] | 5 | 5 | – | – | 4 | 5 | 5
